One data set can be described thus: in vitro. The class given is cell-based. The following applies: human, HepG2 or HepG2.117 cells, mean value. Put shortly:
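Luminescent ATP quantitation served as the viability endpoint following a 3- or 4-day incubation with test compounds.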

In data set [1] the test system is HBV (HepG2.117 cell line, inducibly HBV producing). Put plainly: Anti-HBV activity: intracellular HBV DNA by real-time PCR in HepG2.117 cells after 3 days of treatment. The data set is classed as cell-based, hepatitis B virus. Put shortly: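 Antiviral effect is expressed through intracellular HBV DNA levels, determined by real-time PCR with a virus-specific probe. These levels were measured after 3 days of treatment with compound dilutions, in HepG2.117 cells induced to replicate HBV.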

[2] abbreviates: 3-days incubation (unmarked values), ATPlite.
Setting [3] is: Hepatitis B virus, HepG2.117, 72 h, HepG2.117 cells, 3 days of treatment, intracellular HBV DNA by real-time PCR; mean value; read-out: EC50 (μM, mean value).
Setting [4] is: ATPlite, 3-days incubation (not marked with *).
[5] abbreviates: Hepatitis B virus, HepG2.117, 72 h, HepG2.117 cells, intracellular HBV DNA by real-time PCR, 3 days of treatment, mean value; read-out: EC50 (μM, mean value).

This note sets out measurements from US20230091047A1 (priority 2019, published 2023).

Read-outs that look alike come from different tables or passages of the source.

Broadly, the CC50 is the concentration at which the toxic effect on the cells reaches its halfway point. A high value points to better tolerance by the cells. The term EC50 denotes the concentration at which the effect is half-maximal. In turn, `COc1ccc(CNc2nc3c(c(=O)n2-c2ccccc2F)CCN(C(=O)c2ccc(Cl)c(Cl)c2)C3)cc1` [Compound C14, 7-(3,4-dichlorobenzoyl)-3-(2-fluorophenyl)-2-{[(4-methoxyphenyl)methyl]amino}-5,6,7,8-tetrahydropyrido[3,4-d]pyrimidin-4(3H)-one] displayed a CC50 at 3 days in “in vitro” (setting [2]) of over 50 µM. In data set [1] (setting [3]), the half-maximal effective concentration (EC50) is 1 µM.
In the data set “in vitro” (setting [4]), `CNC(=O)c1ccc(-n2c(NC(C)C)nc3c(c2=O)C[C@@H](C)N(C(=O)c2ccc(OC(F)(F)F)c(Cl)c2)C3)cc1` [Compound C525] displayed a half-maximal cytotoxic concentration (CC50) at 3 days of over 50 µM. In data set [1] (setting [5]), the EC50 amounted to 0.15 µM.
Taken in the same sequence, the figures for `CNC(=O)c1ccc(-n2c(N3CCC[C@H]3c3ccccc3)nc3c(c2=O)C[C@@H](C)N(C(=O)c2ccc(Cl)c(Cl)c2)C3)cc1` (single isomer, unassigned) [Compound C401b] were 18.2 µM and 0.83 µM.
For `CC(C)Nc1nc2c(c(=O)n1-c1ccc(C(=O)NC3CC3)cc1Cl)C[C@@H](C)N(C(=O)c1ccc(Cl)c(C(F)(F)F)c1)C2` (single isomer, unassigned) [Compound C673a] the same measures were over 25 µM and 0.03 µM.
In the data set “in vitro” (setting [2]), `COc1ccc(CNc2nc3c(c(=O)n2C2CC2)CCN(C(=O)c2ccc(Cl)c(Cl)c2)C3)cc1` [Compound C70, 3-cyclopropyl-7-(3,4-dichlorobenzoyl)-2-{[(4-methoxyphenyl)methyl]amino}-5,6,7,8-tetrahydropyrido[3,4-d]pyrimidin-4(3H)-one] had a CC50 at 3 days of 23.1 µM. For the same compound, the EC50 in data set [1] (setting [3]) was 10.8 µM.
Compound `CNC(=O)c1ccc(-n2c(N[C@@H](C)c3ccc(C(F)(F)F)c(Cl)c3)nc3c(c2=O)C[C@@H](C)N(C(=O)c2ccc(Cl)c(Cl)c2)C3)cc1` (single isomer, unassigned) [Compound C664b] had a cytotoxic concentration (CC50) at 3 days in “in vitro” (setting [4]) of over 50 µM. Moreover, in data set [1] (setting [5]), the EC50 was over 2.5 µM.
As for `CNC(=O)c1ccc(-n2c(NC(C)C)nc3c(c2=O)CCN(C(=O)c2ccc(Cl)c(Cl)c2)C3)cc1Cl` [Compound C210, 2-chloro-4-[7-(3,4-dichlorobenzoyl)-4-oxo-2-[(propan-2-yl)amino]-5,6,7,8-tetrahydropyrido[3,4-d]pyrimidin-3(4H)-yl]-N-methylbenzamide], in “in vitro” (setting [2]), the CC50 at 3 days was over 50 µM. In addition, in data set [1] (setting [3]), the EC50 came to 0.27 µM.
As to `CC(C)Nc1nc2c(c(=O)n1-c1ccc(-c3ccns3)cc1)C[C@@H](C)N(C(=O)c1ccc(Cl)c(Cl)c1)C2` [Compound C212, (6R)-7-(3,4-dichlorobenzoyl)-6-methyl-2-[(propan-2-yl)amino]-3-[4-(1,2-thiazol-5-yl)phenyl]-5,6,7,8-tetrahydropyrido[3,4-d]pyrimidin-4(3H)-one], in “in vitro” (setting [2]), the CC50 at 3 days was over 50 µM. For the same compound, the EC50 in data set [1] (setting [3]) was found to be 0.26 µM.
For `CNC(=O)c1ccc(-n2c(N[C@H](C)c3cnnn3C)nc3c(c2=O)C[C@@H](C)N(C(=O)c2ccc(Cl)c(Cl)c2)C3)cc1` [Compound C517], the CC50 at 3 days in the data set “in vitro” (setting [4]) is over 50 µM. For the same compound, the EC50 in data set [1] (setting [5]) was over 25 µM.
The compound `CNC(=O)c1ccc(-n2c(NC(C)C)nc3c(c2=O)C[C@@H](C)N(C(=O)c2cc(C#N)c[nH]2)C3)cc1` [Compound C496] came in with a CC50 at 3 days in the data set “in vitro” (setting [4]) of over 50 µM. The EC50 in data set [1] (setting [5]) was over 25 µM.
For `COc1ccccc1-n1c(NCc2ccncc2)nc2c(c1=O)CCN(C(=O)c1ccc(Cl)c(Cl)c1)C2` [Compound C5, 7-(3,4-dichlorobenzoyl)-3-(2-methoxyphenyl)-2-{[(Pyridin-4-yl)methyl]amino}-5,6,7,8-tetrahydropyrido[3,4-d]pyrimidin-4(3H)-one], in “in vitro” (4-days incubation (values marked with *), ATPlite), the CC50 at 4 days was over 50 µM. The EC50 in data set [1] (setting [3]) is 5.35 µM.
On to `CCN(CC)c1nc2c(c(=O)n1-c1ccc(C(=O)NC)nc1)C[C@@H](C)N(C(=O)c1ccc(Cl)c(Cl)c1)C2` [Compound C625], for which the CC50 at 3 days in “in vitro” (setting [4]) was over 50 µM. Also, in data set [1] (setting [5]), the EC50 was found to be 0.18 µM.
As for `CNC(=O)c1ccc(-n2c(N3CCC34CCC4)nc3c(c2=O)C[C@@H](C)N(C(=O)c2ccc(Cl)c(Cl)c2)C3)cc1` [Compound C373], in the data set “in vitro” (setting [2]), the CC50 at 3 days stood at 28.3 µM. Moreover, the EC50 in data set [1] (setting [3]) stood at 0.71 µM.
`CC(C)NC(=O)c1ncc(-n2c(NC(C)C)nc3c(c2=O)C[C@@H](C)N(C(=O)c2ccc(Cl)c(C(F)(F)F)c2)C3)n1C` [Compound C703] showed a CC50 at 3 days in “in vitro” (3-days incubation (unmarked values), ATPlite viability) of over 50 µM. Also, the EC50 in data set [1] (setting [3]) amounted to 0.09 µM.
Regarding `COc1ccccc1-n1c(NCC2CC2)nc2c(c1=O)CCN(C(=O)c1ccc(Cl)c(Cl)c1)C2` [Compound C50, 2-[(cyclopropylmethyl)amino]-7-(3,4-dichlorobenzoyl)-3-(2-methoxyphenyl)-5,6,7,8-tetrahydropyrido[3,4-d]pyrimidin-4(3H)-one], the CC50 at 3 days in the data set “in vitro” (setting [2]) was 26.7 µM. Moreover, in data set [1] (setting [3]), the 50% effective concentration (EC50) came to 5.85 µM.
For `CNC(=O)c1ccc(-n2c(NCc3ccc4[nH]ccc4c3)nc3c(c2=O)C[C@@H](C)N(C(=O)c2ccc(Cl)c(Cl)c2)C3)cc1` [Compound C284, 4-[(6R)-7-(3,4-dichlorobenzoyl)-2-{[(1H-indol-5-yl)methyl]amino}-6-methyl-4-oxo-5,6,7,8-tetrahydropyrido[3,4-d]pyrimidin-3(4H)-yl]-N-methylbenzamide] the same measures were over 50 µM and 0.13 µM.
Taken in the same sequence, the figures for `CNC(=O)c1ccc(-n2c(N3CC[C@@H]3C)nc3c(c2=O)C[C@@H](C)N(C(=O)c2ccc(Cl)c(Cl)c2)C3)cc1` (single isomer, unassigned) [Compound C312, 4-[(6R)-7-(3,4-dichlorobenzoyl)-6-methyl-2-[(2*S)-2-methylazetidin-1-yl]-4-oxo-5,6,7,8-tetrahydropyrido[3,4-d]pyrimidin-3(4H)-yl]-N-methylbenzamide] were over 50 µM and 0.26 µM.
For `CNC(=O)c1ccc(-n2c(NC3CCC34CCC4)nc3c(c2=O)C[C@@H](C)N(C(=O)c2ccc(Cl)c(Cl)c2)C3)cc1` (stereo partly drawn) [Compound C347, 4-[(6R)-7-(3,4-dichlorobenzoyl)-6-methyl-4-oxo-2-[(spiro[3.3]heptan-1-yl)amino]-5,6,7,8-tetrahydropyrido[3,4-d]pyrimidin-3(4H)-yl]-N-methylbenzamide] the same measures were 24.2 µM and 0.27 µM.
`CC(C)Nc1nc2c(c(=O)n1-c1ccc(S(C)(=O)=O)cc1)CCN(C(=O)c1nc3ccccc3[nH]1)C2` [Compound C358] showed a CC50 at 3 days in “in vitro” (setting [2]) of over 50 µM. In data set [1] (setting [3]), the EC50 is over 50 µM.
In turn, `CNC(=O)c1ccc(-n2c(NC(C)(C)C)nc3c(c2=O)C[C@@H](C)N(C(=O)c2ccc(Cl)c(C(F)(F)F)c2)C3)c(Cl)c1` (single isomer, unassigned) [Compound C677b] returned a CC50 at 3 days in “in vitro” (setting [4]) of 24 µM. Besides, in data set [1] (setting [5]), the half-maximal effective concentration (EC50) was determined as 0.02 µM.
Turning to `CNC(=O)c1ccc(-n2c(NCc3ccc(OC)cc3)nc3c(c2=O)CCN(C(=O)c2ccc(Cl)c(Cl)c2)C3)cc1F` [Compound C220, 4-[7-(3,4-dichlorobenzoyl)-2-{[(4-methoxyphenyl)methyl]amino}-4-oxo-5,6,7,8-tetrahydropyrido[3,4-d]pyrimidin-3(4H)-yl]-2-fluoro-N-methylbenzamide], the CC50 at 3 days in “in vitro” (setting [2]) is over 50 µM. In data set [1] (setting [3]), the EC50 came to 0.42 µM.
The compound `CNC(=O)c1ncc(-n2c(O)nc3c(c2=O)C[C@@H](C)N(C(=O)c2ccc(Cl)c(Cl)c2)C3)n1C` [Compound C626, R-5-(7-(3,4-dichlorobenzoyl)-2-hydroxy-6-methyl-4-oxo-5,6,7,8-tetrahydropyrido[3,4-d]pyrimidin-3(4H)-yl)-N,1-dimethyl-1H-imidazole-2-carboxamide] had a CC50 at 3 days in “in vitro” (setting [4]) of over 50 µM. The EC50 in data set [1] (setting [5]) was over 2.5 µM.
Take `CNC(=O)[C@H]1CC[C@H](n2c(N[C@@H](C)c3ccc(C(F)(F)F)cc3)nc3c(c2=O)C[C@@H](C)N(C(=O)c2ccc(Cl)c(Cl)c2)C3)CC1` [Compound C640]: in the data set “in vitro” (setting [4]), the CC50 at 3 days turned out to be 5.2 µM. The EC50 in data set [1] (setting [5]) worked out at 0.07 µM.
For `CC(=O)Nc1ccc(-n2c(N[C@@H](C)c3ccc4[nH]ncc4c3)nc3c(c2=O)C[C@@H](C)N(C(=O)c2ccc(Cl)c(Cl)c2)C3)cc1` (single isomer, unassigned) [Compound C462b], in the data set “in vitro” (setting [4]), the CC50 at 3 days was over 50 µM. Further, the EC50 in data set [1] (setting [5]) is 0.37 µM.
For `CNC(=O)c1ccc(-n2c(NC(C)(C)c3ccccc3)nc3c(c2=O)C[C@@H](C)N(C(=O)c2ccc(Cl)c(Cl)c2)C3)cc1` [Compound C407] the same measures were 18 µM and 0.15 µM.
The compound `CNC(=O)c1cc(-n2c(N[C@@H](C)c3ccc(F)cc3)nc3c(c2=O)C[C@@H](C)N(C(=O)c2ccc(Cl)c(Cl)c2)C3)nn1C` [Compound C624] returned a CC50 at 3 days in the data set “in vitro” (setting [4]) of over 50 µM. For the same compound, the EC50 in data set [1] (setting [5]) stood at 0.06 µM.
Consider `COc1ccc(CNc2nc3c(c(=O)n2-c2ccccc2OC)CCN(C(=O)c2ccc(Cl)c(Cl)c2)C3)cc1` [Compound C1, 7-(3,4-dichlorobenzoyl)-3-(2-methoxyphenyl)-2-{[(4-methoxyphenyl)methyl]amino}-5,6,7,8-tetrahydropyrido[3,4-d]pyrimidin-4(3H)-one], for which the CC50 at 3 days in the data set “in vitro” (setting [2]) is over 50 µM. The EC50 in data set [1] (setting [3]) came out at 1.47 µM.
Take `CNC(=O)c1ccc(-n2c(N[C@@H](C)c3ccc(F)c(OC)c3)nc3c(c2=O)C[C@@H](C)N(C(=O)c2ccc(Cl)c(Cl)c2)C3)cc1` (single isomer, unassigned) [Compound C435b]: the CC50 at 3 days in the data set “in vitro” (setting [4]) was 45.8 µM. For the same compound, the EC50 in data set [1] (setting [5]) amounted to 1.29 µM.
For `CNC(=O)c1ccc(-n2c(NC(C)C)nc3c(c2=O)C[C@@H](C)N(C(=O)c2ccc(Cl)c(C#N)c2)C3)cc1` [Compound C686] the same measures were over 50 µM and 0.2 µM.
